The term EC50 denotes the concentration at which the effect is half-maximal.

Holding throughout (type): cell-based
Test [1] addresses T1, CFTR ΔF508 mutant (Homo sapiens, UniProt P13569, DEL508-508).
T1 construct: expressed in transfected cells; host or cells: CFBE41o- (adenoviral transduction)
The test is described as follows: YFP-halide influx assay for the CFTR-ΔF508 mutation, gluconate buffer. Conditions: CFBE41o- cells, forskolin 10.67 μM. In outline: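 Channel opening is read as the fall in YFP fluorescence over 7 s following iodide injection, expressed as 1-F/F0 and plotted versus compound concentration to derive EC50. Cells used were CFBE41o- expressing adenoviral ΔF508 CFTR and halide-sensitive YFP, rescued by 24 h at 27 °C or 24 h modulator treatment at 37 °C.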

Another test concerns the target T2, CFTR G551D mutant (Homo sapiens, UniProt P13569, G551D).
T2 construct: expressed in transfected cells; host or cells: HEK293 (reverse transfection with plasmid)
Description: YFP-halide influx assay for the CFTR-G551D mutation. As to conditions: HEK293 cells, forskolin 10.67 μM. In outline:
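Channel opening potentiation measured as 1−F/F0, where F is YFP fluorescence 7 s after iodide injection and F0 before; EC50 taken from concentration plot. Cells: HEK293 transiently expressing CFTR G551D plus halide-sensitive YFP (H148Q, I152L, F47L), 24 h at 37 °C, 5% CO2.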

In test [2] the target is T1, CFTR ΔF508 mutant. Description: YFP-halide influx assay for the CFTR-ΔF508 mutation (384 well, FDSS/μCell). As to conditions: CFBE41o- cells, CFTR-ΔF508, 1×D-PBS, fluorescence after 36 seconds. The method, boiled down: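 Potentiator read-out as 1−F/F0, F taken 36 s after iodide addition, EC50 fitted against compound concentration. Cells: CFBE41o- expressing ΔF508 CFTR plus halide-sensitive YFP via adenovirus, rescued by 27 °C for 24 h or 24 h modulator at 37 °C.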

For test [3], the target named is T1, CFTR ΔF508 mutant. Description: YFP-halide influx assay for the CFTR-ΔF508 mutation, PBS buffer (96 well). Conditions: CFBE41o- cells, forskolin 10.67 μM. The text has this:
The YFP halide influx assay measures the functionality of the cystic fibrosis Transmembrane Conductance regulator (CFTR) channels in the cystic fibrosis bronchial epithelium cell line CFBE41o-. The assay is used to evaluate the capacity of compounds to increase the open probability of existing CFTR channels in the membrane. It makes use of the observation that the yellow fluorescent protein (YFP) variant YFP H148Q, I152L has its fluorescence substantially quenched by halide ions like Cl^− and I^−. (Galietta, Haggie, & Verkman, 2001) (Nagai, et al., 2002)
For this purpose, CFBE41o-cells are seeded in 96 well plates (6000 CFBE cells/well). One day after seeding, the CFBE cells are transduced with adenoviral vectors that direct the expression of the CFTR ΔF508 mutant and of the YFP reporter. Cells are incubated at 27° C., 5% CO2 for 24 hours so as to allow for the proper folding and migration to the membrane of the CFTR channel or treated with a CFTR modulator during 24 hours at 37° C.
The I^− induced quenching of fluorescence is recorded immediately after injection of I^− for 7 seconds. The capacity of a compound to increase the channel opening is directly correlated with the decrease in fluorescence, and is expressed as (1-(fluorescence after 7 seconds (F)/fluorescence before injection (F0))) and an EC50 can be derived from a (1-F/F0) vs compound concentration plot.

SMILES strings stand for the structures.

T2 sequence (P13569 whole entry G551D): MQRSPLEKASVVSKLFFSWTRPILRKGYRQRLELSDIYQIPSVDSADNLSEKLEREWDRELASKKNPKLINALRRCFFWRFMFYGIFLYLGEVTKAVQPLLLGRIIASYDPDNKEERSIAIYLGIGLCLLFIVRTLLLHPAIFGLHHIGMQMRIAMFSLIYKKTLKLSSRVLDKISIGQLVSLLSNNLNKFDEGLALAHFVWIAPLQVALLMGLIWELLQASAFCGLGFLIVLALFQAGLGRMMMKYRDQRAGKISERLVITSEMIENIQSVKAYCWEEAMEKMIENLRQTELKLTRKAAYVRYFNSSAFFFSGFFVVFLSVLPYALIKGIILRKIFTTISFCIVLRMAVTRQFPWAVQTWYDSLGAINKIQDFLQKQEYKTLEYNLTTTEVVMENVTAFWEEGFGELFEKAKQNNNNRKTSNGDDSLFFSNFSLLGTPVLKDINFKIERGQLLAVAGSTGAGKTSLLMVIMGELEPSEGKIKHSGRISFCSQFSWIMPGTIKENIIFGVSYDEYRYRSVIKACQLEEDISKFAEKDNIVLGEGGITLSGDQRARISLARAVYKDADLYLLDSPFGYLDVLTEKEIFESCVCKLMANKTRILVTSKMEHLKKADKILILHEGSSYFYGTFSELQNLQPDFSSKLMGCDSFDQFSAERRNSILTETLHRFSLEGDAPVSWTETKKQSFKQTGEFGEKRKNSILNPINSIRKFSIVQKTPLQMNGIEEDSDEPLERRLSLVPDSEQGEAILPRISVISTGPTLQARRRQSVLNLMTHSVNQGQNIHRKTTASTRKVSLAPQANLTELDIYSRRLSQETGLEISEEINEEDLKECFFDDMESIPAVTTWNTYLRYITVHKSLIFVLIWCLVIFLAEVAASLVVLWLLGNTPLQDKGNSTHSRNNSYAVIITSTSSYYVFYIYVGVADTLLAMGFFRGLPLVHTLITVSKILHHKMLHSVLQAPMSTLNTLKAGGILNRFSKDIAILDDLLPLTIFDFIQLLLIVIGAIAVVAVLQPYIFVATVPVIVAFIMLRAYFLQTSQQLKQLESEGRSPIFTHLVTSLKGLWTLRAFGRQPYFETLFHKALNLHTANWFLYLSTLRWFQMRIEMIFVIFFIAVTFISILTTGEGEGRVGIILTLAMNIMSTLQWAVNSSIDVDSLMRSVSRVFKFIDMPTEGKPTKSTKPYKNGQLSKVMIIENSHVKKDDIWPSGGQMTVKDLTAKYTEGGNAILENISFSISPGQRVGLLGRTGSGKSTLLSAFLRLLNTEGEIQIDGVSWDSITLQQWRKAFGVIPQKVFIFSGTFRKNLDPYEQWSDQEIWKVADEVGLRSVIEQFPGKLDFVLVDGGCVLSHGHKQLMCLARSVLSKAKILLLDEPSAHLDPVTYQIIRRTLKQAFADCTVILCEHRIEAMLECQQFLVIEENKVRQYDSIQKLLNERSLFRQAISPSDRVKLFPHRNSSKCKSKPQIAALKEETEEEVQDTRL
T1 sequence (P13569 with tags, fused parts or gaps DEL508-508): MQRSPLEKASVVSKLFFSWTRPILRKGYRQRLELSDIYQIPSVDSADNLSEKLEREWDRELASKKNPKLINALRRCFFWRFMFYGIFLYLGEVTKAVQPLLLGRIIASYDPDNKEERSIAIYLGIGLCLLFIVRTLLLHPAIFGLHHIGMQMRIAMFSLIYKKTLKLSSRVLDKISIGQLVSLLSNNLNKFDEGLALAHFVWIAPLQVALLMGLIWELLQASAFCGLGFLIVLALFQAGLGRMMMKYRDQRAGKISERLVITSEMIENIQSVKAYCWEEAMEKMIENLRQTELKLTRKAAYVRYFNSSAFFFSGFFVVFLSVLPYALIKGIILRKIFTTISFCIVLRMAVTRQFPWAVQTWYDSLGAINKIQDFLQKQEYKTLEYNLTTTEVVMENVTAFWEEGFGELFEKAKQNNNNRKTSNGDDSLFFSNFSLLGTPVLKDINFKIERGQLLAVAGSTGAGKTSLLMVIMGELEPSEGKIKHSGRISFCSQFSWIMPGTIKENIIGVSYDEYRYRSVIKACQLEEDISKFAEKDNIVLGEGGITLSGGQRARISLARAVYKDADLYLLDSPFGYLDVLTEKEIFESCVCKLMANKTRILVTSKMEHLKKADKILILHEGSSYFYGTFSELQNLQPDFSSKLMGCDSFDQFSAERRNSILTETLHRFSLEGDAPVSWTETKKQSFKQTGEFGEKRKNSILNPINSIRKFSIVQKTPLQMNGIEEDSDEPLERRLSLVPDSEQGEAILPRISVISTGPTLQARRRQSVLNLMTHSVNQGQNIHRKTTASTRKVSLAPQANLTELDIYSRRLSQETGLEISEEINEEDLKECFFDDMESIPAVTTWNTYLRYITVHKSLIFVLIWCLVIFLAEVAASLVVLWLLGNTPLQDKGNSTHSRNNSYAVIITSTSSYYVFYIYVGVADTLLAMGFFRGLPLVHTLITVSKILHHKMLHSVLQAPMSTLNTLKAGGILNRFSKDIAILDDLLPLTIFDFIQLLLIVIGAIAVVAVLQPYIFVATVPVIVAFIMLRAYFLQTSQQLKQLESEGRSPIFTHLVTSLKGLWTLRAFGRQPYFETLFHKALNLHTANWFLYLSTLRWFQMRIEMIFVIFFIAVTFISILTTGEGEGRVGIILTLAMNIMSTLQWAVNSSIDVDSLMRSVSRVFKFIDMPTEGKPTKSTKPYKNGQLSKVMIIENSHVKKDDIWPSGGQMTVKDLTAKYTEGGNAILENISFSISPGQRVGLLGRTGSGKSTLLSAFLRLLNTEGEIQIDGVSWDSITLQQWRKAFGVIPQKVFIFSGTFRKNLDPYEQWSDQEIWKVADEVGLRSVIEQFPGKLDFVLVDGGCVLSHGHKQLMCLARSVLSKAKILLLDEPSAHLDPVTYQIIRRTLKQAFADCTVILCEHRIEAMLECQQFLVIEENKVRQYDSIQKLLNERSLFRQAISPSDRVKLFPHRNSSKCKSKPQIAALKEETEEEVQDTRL

On to `NC(=O)c1cc(S(=O)(=O)N2CCC(F)(F)CC2)sc1NC(=O)c1cc[nH]n1` [Compound 140, N-(3-carbamoyl-5-(4,4-difluoropiperidin-1-ylsulfonyl)thiophen-2-yl)-1H-pyrazole-3-carboxamide], for which the values for the EC50 on CFTR ΔF508 mutant [1], at CFTR G551D mutant and on CFTR ΔF508 mutant [2] were 29.3 nM, 67.4 nM and 10.3 nM, respectively.

As for `CCc1cc(C(=O)Nc2sc(S(=O)(=O)N3CCC(F)(F)CC3)cc2C(N)=O)n[nH]1` [Compound 141, N-(3-carbamoyl-5-(4,4-difluoropiperidin-1-ylsulfonyl)thiophen-2-yl)-5-ethyl-1H-pyrazole-3-carboxamide], the results for the concentration giving a half-maximal response (EC50) at CFTR ΔF508 mutant [1], at CFTR G551D mutant and at CFTR ΔF508 mutant [2] were 29.7 nM, 258 nM and 98.2 nM, respectively.

For `CC(C)(C)c1cc(C(=O)Nc2sc(S(=O)(=O)N3CCC(F)(F)CC3)cc2C(N)=O)n[nH]1` [Compound 142, 5-tert-butyl-N-(3-carbamoyl-5-(4,4-difluoropiperidin-1-ylsulfonyl)thiophen-2-yl)-1H-pyrazole-3-carboxamide], the concentration for a half-maximal effect (EC50) worked out at 70.7 nM on CFTR ΔF508 mutant [1], 536 nM on CFTR G551D mutant and 294 nM at CFTR ΔF508 mutant [2].

`NC(=O)c1cc(S(=O)(=O)N2CCOCC2)sc1NC(=O)c1ccccc1O` [Compound 143, 2-(2-Hydroxy-benzoylamino)-5-(morpholine-4-sulfonyl)-thiophene-3-carboxylic acid amide]: the EC50 on CFTR ΔF508 mutant [1] turned out to be 29.2 nM; at CFTR G551D mutant, 232 nM; on CFTR ΔF508 mutant [2] it was 27.2 nM.

`CN(Cc1ccc(F)cc1)S(=O)(=O)c1cc(C(N)=O)c(NC(=O)c2cc[nH]n2)s1` [Compound 145, 1H-Pyrazole-3-carboxylic acid {3-carbamoyl-5-[(4-fluoro-benzyl)-methyl-sulfamoyl]-thiophen-2-yl}-amide]: the values for the concentration giving a half-maximal response (EC50) on CFTR ΔF508 mutant [1], on CFTR G551D mutant and on CFTR ΔF508 mutant [2] were 19.5 nM, 215 nM and 71 nM, respectively.

As for `CC(C)N(C(C)C)S(=O)(=O)c1cc(C(N)=O)c(NC(=O)c2ccccc2F)s1` [Compound 154, 5-(N,N-diisopropylsulfamoyl)-2-(2-fluorobenzamido) thiophene-3-carboxamide], the figures for the EC50 at CFTR ΔF508 mutant [1] and at CFTR ΔF508 mutant [2] were 105 nM and 427 nM, respectively.

`COCCN(CC(F)(F)F)S(=O)(=O)c1cc(C(N)=O)c(NC(=O)c2ccccc2F)s1` [Compound 157, 2-(2-fluorobenzamido)-5-(N-(2-methoxyethyl)-N-(2,2,2-trifluoroethy)sulfamoyl) thiophene-3-carboxamide]: the EC50 was determined as 86.5 nM on CFTR ΔF508 mutant [1], 241 nM on CFTR G551D mutant and 60.9 nM at CFTR ΔF508 mutant [2].

`Cc1ccc(CN(C)S(=O)(=O)c2cc(C(N)=O)c(NC(=O)c3cc[nH]n3)s2)cc1` [Compound 170, N-(3-carbamoyl-5-(N-methyl-N-(4-methylbenzyl)sulfamoyl)thiophen-2-yl)-1H-pyrazole-3-carboxamide]: the EC50 at CFTR ΔF508 mutant [1] was 38 nM; at CFTR ΔF508 mutant [2] it was 184 nM.

As for `CN(Cc1ccc(F)cc1F)S(=O)(=O)c1cc(C(N)=O)c(NC(=O)c2cc[nH]n2)s1` [Compound 172, N-(3-carbamoyl-5-(N-(2,4-difluorobenzyl)-N-methylsulfamoyl)thiophen-2-yl)-1H-pyrazole-3-carboxamide], the EC50 on CFTR ΔF508 mutant [1] came out at 15.4 nM; on CFTR G551D mutant, 136 nM; at CFTR ΔF508 mutant [2], 42 nM.

Regarding `CN(c1ccc(F)cc1)S(=O)(=O)c1cc(C(N)=O)c(NC(=O)c2cc[nH]n2)s1` [Compound 173, 1H-Pyrazole-3-carboxylic acid {3-carbamoyl-5-[(4-fluoro-phenyl)-methyl-sulfamoyl]-thiophen-2-yl}-amide], the EC50 is 21 nM on CFTR ΔF508 mutant [1] and 15.8 nM on CFTR ΔF508 mutant [2].

For the compound `COc1ccc(OC)c(S(=O)(=O)c2cc(C(N)=O)c(NC(=O)c3ccccc3F)s2)c1` [Compound 182, 5-(2,5-dimethoxyphenylsulfonyl)-2-(2-fluorobenzamido)thiophene-3-carboxamide], the figures for the EC50 at CFTR ΔF508 mutant [1] and at CFTR ΔF508 mutant [2] were 97.9 nM and 433 nM, respectively.

For the compound `NC(=O)c1cc(S(=O)(=O)N2CCC(F)(F)CC2)sc1NC(=O)c1cc(C(F)(F)F)[nH]n1` [Compound 189, N-(3-carbmoyl-5-(4,4-difluoropiperidin-1-ylsulfonyl)thiophen-2-yl)-5-(trifluoromethyl)-1H-pyrazole-3-carboxamide], the EC50 at CFTR ΔF508 mutant [1] was 122 nM; at CFTR G551D mutant, 226 nM.

`NC(=O)c1cc(S(=O)(=O)N2CCC(F)(F)CC2)sc1NC(=O)c1ccccc1O` [Compound 190, 5-(4,4-difluoropiperidin-1-ylsulfonyl)-2-(2-hydroxybenzamido)thiophene-3-carboxamide]: the concentration for a half-maximal effect (EC50) on CFTR ΔF508 mutant [1] turned out to be 73.9 nM; on CFTR G551D mutant, 278 nM; at CFTR ΔF508 mutant [2] it was 83.3 nM.

As to `NC(=O)c1cc(S(=O)(=O)N(Cc2ccc(F)cc2)C2CC2)sc1NC(=O)c1cc[nH]n1` [Compound 191, N-(3-carbamoyl-5-(N-cyclopropyl-N-(4-fluorobenzyl)sulfamoyl)thiophen-2-yl)-1H-pyrazole-3-carboxamide], the EC50 was determined as 90 nM at CFTR ΔF508 mutant [1], 245 nM on CFTR G551D mutant and 197 nM on CFTR ΔF508 mutant [2].

As for `CN(CC1CC1)S(=O)(=O)c1cc(C(N)=O)c(NC(=O)c2cc[nH]n2)s1` [Compound 193, N-(3-carbamoyl-5-(N-(cyclopropylmethyl)-N-methylsulfamoyl)thiophen-2-yl)-1H-pyrazole-3-carboxamide], the EC50 at CFTR ΔF508 mutant [1] came out at 114 nM; at CFTR G551D mutant, 206 nM; on CFTR ΔF508 mutant [2], 49.5 nM.

For the compound `CC(C)S(=O)(=O)c1cc(C(N)=O)c(NC(=O)c2ccccc2O)s1` [Compound 197, 2-(2-hydroxybenzaido)-5-(isopropylsulfonyl) thiophene-3-carboxamide], the EC50 on CFTR ΔF508 mutant [1] was determined as 91 nM; at CFTR G551D mutant, 158 nM; at CFTR ΔF508 mutant [2], 24.8 nM.

With `NC(=O)c1cc(S(=O)(=O)N2CCOCC2)sc1NC(=O)c1ccc(F)cc1O` [Compound 198, 2-(4-fluoro-2-hydroxybenzamido)-5-(morpholinosulfonyl)thiophene-3-carboxamide], the EC50 was 97.2 nM on CFTR ΔF508 mutant [1], 136 nM at CFTR G551D mutant and 20.2 nM at CFTR ΔF508 mutant [2].

`CC(C)N(C)S(=O)(=O)c1cc(C(N)=O)c(NC(=O)c2cc[nH]n2)s1` [Compound 210, N-(3-carbamoyl-5-(N-isopropyl-N-methylsulfamoyl)thiophen-2-yl)-1H-pyrazole-3-carboxamide]: the EC50 on CFTR ΔF508 mutant [1] is 73.5 nM; on CFTR G551D mutant it was 470 nM; at CFTR ΔF508 mutant [2] it was 13.4 nM.

As for `COCCC(=O)Nc1sc(S(=O)(=O)c2ccc(F)cc2)cc1C(N)=O` [Compound 229, 5-(4-fluorophenylsulfonyl)-2-(3-methoxypropanamido) thiophene-3-carboxamide], on CFTR ΔF508 mutant [3], the midpoint of the response, the EC50, lay at 3100 nM.

Regarding `NC(=O)c1cc(S(=O)(=O)c2ccc(F)cc2)sc1NC(=O)c1cccnc1F` [Compound 230, N-(3-carbamoyl-5-(4-fluorophenylsulfonyl)thiophen-2-yl)-2-fluoronicotinamide], the response on CFTR ΔF508 mutant [3] was half-maximal at 988 nM (EC50).

For `CC1COCC(C)N1S(=O)(=O)c1cc(C(N)=O)c(NC(=O)C2(O)CC2)s1` (stereo not shown) [Compound 234, 5-(3,5-dimethylmorpholinosulfonyl)-2-(1-hydroxycyclopropanecarboxamido) thiophene-3-carboxamide], on CFTR ΔF508 mutant [3], a half-maximal response (EC50) required 283 nM.

Regarding `CC1CN(S(=O)(=O)c2cc(C(N)=O)c(NC(=O)C3(O)CC3)s2)CC(C)O1` (stereo not shown) [Compound 238, 5-(2,6-dimethylmorpholinosulfonyl)-2-(1-hydroxycyclopropanecarboxamido) thiophene-3-carboxamide], a half-maximal effect at CFTR ΔF508 mutant [3] (EC50) was put at 224 nM.

As to `COC1CCN(S(=O)(=O)c2cc(C(N)=O)c(NC(=O)C3(O)CC3)s2)CC1` [Compound 239, 2-(1-hydroxycyclopropanecarboxamido)-5-(4-methoxypiperidin-1-ylsulfonyl)thiophene-3-carboxamide], the EC50 at CFTR ΔF508 mutant [3] was determined as 292 nM.

In turn, `CC1CN(S(=O)(=O)c2cc(C(N)=O)c(NC(=O)C3(O)CC3)s2)CCO1` (stereo not shown) [Compound 240, 2-(1-hydroxycyclopropanecarboxamido)-5-(2-methylmorpholinosulfonyl) thiophene-3-carboxamide] displayed a concentration giving a half-maximal response (EC50) at CFTR ΔF508 mutant [3] of 611 nM.

These data come from US9382254B2, “Compounds and pharmaceutical compositions thereof for the treatment of cystic fibrosis” (Galapagos NV, priority 2013, dated 2016).
